Experimental data: patent US5679648A, “Methods for the treatment and prevention of fungal infections by administration of 3'-deoxypurine nucleosides” (The University Hospital, priority 1994, dated 1997)
Like-named read-outs stand apart in the source and are kept apart here.

Columns and labels:
A. fumigatus = assay: MIC of 3'-deoxynucleosides in cell cultures (microtiter plates, 24 hours); type: cell-based; conditions: Aspergillus fumigatus
Experimental: (§1) Cell cultures of various organisms were established in microtiter plates and maintained for a period of 24 hours after the addition of a 3'-deoxynucleoside (3'-dA, 3'-dG, 3'-dC, 3'-dU) (Calbiochem; San Diego, Calif.; Fluka Chemical; Ronkonkoma, N.Y.; Pharmacia Biotech; Piscataway, N.J.) or amphotericin B in μg/ml (Sigma Chemical; St. Louis, Mo.) as control.

C. albicans = assay: as above; type: cell-based; conditions: Candida albicans
Experimental: as §1

C. neoformans = assay: as above; type: cell-based; conditions: Cryptococcus neoformans
Experimental: as §1

C. tropicalis = assay: as above; type: cell-based; conditions: Candida tropicalis
Experimental: as §1

Rhizopus = assay: as above; type: cell-based
Experimental: as §1

Candida albicans [1] = assay: Mortality in Candida albicans infected mice; type: in vivo; conditions: ICR mice, 10^6 cfu C. albicans; for Survival After 25 Days: 10 days i.p.: 3'-deoxyadenosine 1.5, deoxycoformycin 0.4, amphotericin B 1.0 mg/kg/day, n=10, control 40%; for Survival After 15 Days: second experiment, 10 days i.p., same doses, n=8, control 0%
Experimental: Halen Sprague Dawley ICR mice were injected is with approximately 10^6 cfu of Candida albicans. Twenty-four hours after injection, mice were treated for 10 days with the indicated agents: 3'-deoxyadenosine (Sigma Chemical; St. Louis, Mo.) at 1.5 mg/kg/day i.p., deoxycoformycin (Sigma Chemical; St. Louis, Mo.) at 0.4 mg/kg/day i.p., amphotericin B (Sigma Chemical; St. Louis, Mo.) at 1.0 mg/kg/day i.p. Survival after 25 days is shown in Tables 2 and 3.

Candida albicans [2] = assay: Time to reach LD50 in Candida albicans infected mice; type: in vivo; conditions: ICR mice, 10^6 cfu C. albicans; 10 days i.p.: 3'-deoxyadenosine 1.5, deoxycoformycin 0.4, amphotericin B 1.0 mg/kg/day; control 6
Experimental: Halen Sprague Dawley ICR mice were injected with approximately 10^6 cfu Candida albicans and treated for 10 days with the following agents: 3'-deoxyadenosine (Sigma Chemical; St. Louis, Mo.) at 1.5 mg/kg/day i.p., deoxycoformycin (Sigma Chemical; St. Louis, Mo.) at 0.4 mg/kg/day i.p., amphotericin B (Sigma Chemical; St. Louis, Mo.) at 1.0 mg/kg/day i.p. Time in days to reach LD50 is shown in Table 4.

8402 cells = assay: Cytotoxicity to neoplastic cells in tissue culture; type: cell-based; conditions: 8402 (TdT-positive), in the presence of coformycin; read-out: cytotoxic IC50
Experimental: (§2) Cell lines were maintained in FCS/DMEM (GIBCO/BRL; Grand Island, N.Y.) at 37° C. with 5% CO2 and treated with cordycepin, coformycin or cordycepin plus coformycin, or remain untreated as controls. In the presence of coformycin, cordycepin was specifically cytotoxic at IC50 of less than 0.5 μM for the TdT-positive cells NALM-6, HPB-ALL, MOLT-4, CEM and 8402 cells. […] The earliest manifestations of cytotoxic damage by cordycepin in TdT (terminal deoxynudeotidyl tranferase)-positive cells was the emergence of classic features of apoptosis such as membrane blebbing, volume loss, chromatin clumping and inter-nucleosomal DNA digestion into 180 base pair (bp) multiples. In contrast, the cytotoxic damage seen when TdT-negative cells are exposed to high levels (greater than 5.0 μM) of cordycepin is associated with random DNA breakdown and necrosis. Since apoptosis in normal TdT-positive thymocytes is stimulated by protein kinase A (PK-A) activity, and inhibited by protein kinase C (PK-C) activity, PK-A and PK-C activities were measured in TdT-positive and TdT-negative cell lines after exposure to cordycepin.

CEM = assay: Cytotoxicity to neoplastic cells in tissue culture; type: cell-based; conditions: CEM (TdT-positive), in the presence of coformycin; read-out: cytotoxic IC50
Experimental: as §2

HPB-ALL = assay: Cytotoxicity to neoplastic cells in tissue culture; type: cell-based; conditions: HPB-ALL (TdT-positive), in the presence of coformycin; read-out: cytotoxic IC50
Experimental: as §2

MOLT-4 = assay: Cytotoxicity to neoplastic cells in tissue culture; type: cell-based; conditions: MOLT-4 (TdT-positive), in the presence of coformycin; read-out: cytotoxic IC50
Experimental: as §2

NALM-6 = assay: Cytotoxicity to neoplastic cells in tissue culture; type: cell-based; conditions: NALM-6 (TdT-positive), in the presence of coformycin; read-out: cytotoxic IC50
Experimental: as §2

protein kinase A (PK-A) = assay: PK-A activity in TdT-positive and TdT-negative cell lines after exposure; type: cell-based
Experimental: (§3) Cell lines were maintained in FCS/DMEM (GIBCO/BRL; Grand Island, N.Y.) at 37° C. with 5% CO2 and treated with cordycepin, coformycin or cordycepin plus coformycin, or remain untreated as controls. […] Since apoptosis in normal TdT-positive thymocytes is stimulated by protein kinase A (PK-A) activity, and inhibited by protein kinase C (PK-C) activity, PK-A and PK-C activities were measured in TdT-positive and TdT-negative cell lines after exposure to cordycepin.

protein kinase C (PK-C) = assay: PK-C activity in TdT-positive and TdT-negative cell lines after exposure; type: cell-based
Experimental: as §3

[3] = A. fumigatus, 24 hours, read-out: MIC
[4] = C. albicans, 24 hours, read-out: MIC
[5] = C. neoformans, 24 hours, read-out: MIC
[6] = C. tropicalis, 24 hours, read-out: MIC

| Structure (SMILES) | MIC (A. fumigatus; [3]) [µM] | MIC (C. albicans; [4]) [µM] | MIC (C. neoformans; [5]) [µM] | MIC (C. tropicalis; [6]) [µM] | MIC (Rhizopus; 24 hours, read-out: MIC) [µM] | Survival After 25 Days (Candida albicans [1]) [%] | Survival After 15 Days (Candida albicans [1]) [%] | Days to Reach LD50 (Candida albicans [2]) [days] | also measured |
| --- | --- | --- | --- | --- | --- | --- | --- | --- | --- |
| Nc1ncnc2c1ncn2[C@@H]1O[C@H](CO)C[C@H]1O [3'-dA, 3'-deoxyadenosine] | 5 | 20 | 20 | 20 | > 20 | 30 | 37.5 | 9.5 | IC50 (8402 cells): < 500 nM; IC50 (CEM): < 500 nM; IC50 (HPB-ALL): < 500 nM; IC50 (MOLT-4): < 500 nM; IC50 (NALM-6): < 500 nM; PK-A activity change (protein kinase A (PK-A); TdT-negative cells): unchanged; PK-A activity increase (protein kinase A (PK-A); TdT-positive cells, within 2 hours of exposure): 8-10 fold; PK-C activity change (protein kinase C (PK-C); TdT-negative cells): unchanged; PK-C activity change (protein kinase C (PK-C); TdT-positive cells): unchanged |
| C[C@@H]1[C@H](O)[C@@H](C)/C=C/C=C/C=C/C=C/C=C/C=C/C=C/[C@H](O[C@@H]2O[C@H](C)[C@@H](O)[C@H](N)[C@@H]2O)C[C@@H]2O[C@](O)(C[C@@H](O)C[C@@H](O)[C@H](O)CC[C@@H](O)C[C@@H](O)CC(=O)O[C@H]1C)C[C@H](O)[C@H]2C(=O)O [Amphotericin B, amphotericin B] |  |  |  |  |  | 90 | 50.0 | > 30 | MIC (A. fumigatus; 24 h): 1.25 µg/mL; MIC (C. albicans; 24 h): < 0.6 µg/mL; MIC (C. neoformans; 24 h): 2.5 µg/mL; MIC (C. tropicalis; 24 h): 1.25 µg/mL; MIC (Rhizopus; 24 h): 2.5 µg/mL |
| OC[C@H]1O[C@@H](n2cnc3c2NC=NC[C@H]3O)C[C@@H]1O [deoxycoformycin] |  |  |  |  |  | 30 | 25.0 | 5 |  |

Second part, led by results:

| MIC (A. fumigatus; [3]) [µM] | MIC (C. albicans; [4]) [µM] | MIC (C. neoformans; [5]) [µM] | MIC (C. tropicalis; [6]) [µM] | MIC (Rhizopus; 24 hours, read-out: MIC) [µM] | Structure (SMILES) | Survival After 25 Days (Candida albicans [1]) [%] | Survival After 15 Days (Candida albicans [1]) [%] | Days to Reach LD50 (Candida albicans [2]) [days] | also measured |
| --- | --- | --- | --- | --- | --- | --- | --- | --- | --- |
| 20 | > 20 | > 20 | > 20 | > 20 | Nc1ccn([C@@H]2O[C@H](CO)C[C@H]2O)c(=O)n1 [3'-dC] |  |  |  |  |
| > 20 | > 20 | > 20 | > 20 | > 20 | Nc1nc2c(ncn2[C@@H]2O[C@H](CO)C[C@H]2O)c(=O)[nH]1 [3'-dG] |  |  |  |  |
| > 20 | > 20 | > 20 | > 20 | > 20 | O=c1ccn([C@@H]2O[C@H](CO)C[C@H]2O)c(=O)[nH]1 [3'-dU] |  |  |  |  |
